These molecules were tested against Cyclin-dependent kinase 2 (Homo sapiens, UniProt P24941) (assay: Inhibition of CDK2 in human OVCAR-3 cells assessed as inhibition of retinoblastoma protein phosphorylation at S807/811 residues measured after 24 hrs by TR-FRET assay).
Assay type: cell-based

Row | Structure (SMILES) | IC50 [nM]
1 | Cn1nc(N2CCC(=O)NC2=O)c2ccc(C3CCN(CC4CCN(S(=O)(=O)N5CCC(Nc6ncc(C(F)(F)F)c(-c7cnn(CC(F)(F)F)c7)n6)CC5)CC4)CC3)cc21 | < 100
2 | O=C1CCC(N2Cc3cc(C4CN(Cc5cccc(S(=O)(=O)N6CCC(Nc7ncc(C(F)(F)F)c(-c8cnn(CC(F)(F)F)c8)n7)CC6)c5)C4)ccc3C2=O)C(=O)N1 (stereo not drawn) | < 100
3 | O=C1CCC(c2ccc(N3CCN(Cc4cccc(S(=O)(=O)N5CCC(Nc6ncc(C(F)(F)F)c(-c7cnn(CC(F)(F)F)c7)n6)CC5)c4)CC3)cc2)C(=O)N1 (stereo not drawn) | < 100
4 | Cn1nc(N2CCC(=O)NC2=O)c2ccc(C3CCN(Cc4cccc(S(=O)(=O)N5CCC(Nc6ncc(C(F)(F)F)c(-c7cnn(-c8ccccc8F)c7)n6)CC5)c4)CC3)cc21 | ≤ 100
5 | O=C1CCC(N2C(=O)c3cc(F)c(N4CC5(CN(Cc6cccc(S(=O)(=O)N7CCC(Nc8ncc(C(F)(F)F)c(-c9cnn(CC(F)(F)F)c9)n8)CC7)c6)C5)C4)cc3C2=O)C(=O)N1 (stereo not drawn) | < 100
6 | O=C1CCC(N2C(=O)c3cc(F)c(N4CCN(Cc5cccc(S(=O)(=O)N6CCC(Nc7ncc(Cl)c(-c8cnn(CC(F)(F)F)c8)n7)CC6)c5)CC4)cc3C2=O)C(=O)N1 (stereo not drawn) | < 100
7 | O=C1CCC(N2Cc3ccc(N4CCC5(CCN(Cc6cccc(S(=O)(=O)N7CCC(Nc8ncc(C(F)(F)F)c(-c9cnn(CC(F)(F)F)c9)n8)CC7)c6)CC5)CC4)cc3C2=O)C(=O)N1 (stereo not drawn) | < 100
8 | Cn1nc(N2CCC(=O)NC2=O)c2cc(C3CCN(Cc4cccc(S(=O)(=O)N5CCC(Nc6ncc(C(F)(F)F)c(-c7cnn(CC(F)(F)F)c7)n6)CC5)c4)CC3)ccc21 | < 100

Reference: ChEMBL document CHEMBL5584281, “Toward Precision Oncology: The Role of TPD in Targeting CDK2 and Beyond” (ACS Med Chem Lett, 2024)
